In US10758534B2 (Vertex Pharmaceuticals Incorporated, priority 2014, dated 2020) one finds EC30 data, which are given here for 29 compounds.

The term EC30 denotes the concentration at which the effect reaches the 30% level.

A value given as a limit tells only on which side of the number the result lay.

For one assay, the target named is T1, F508del (Homo sapiens, UniProt P13569, DEL508-508).
T1 construct: expressed in transfected cells
T1 sequence (P13569 with tags, fused parts or gaps DEL508-508): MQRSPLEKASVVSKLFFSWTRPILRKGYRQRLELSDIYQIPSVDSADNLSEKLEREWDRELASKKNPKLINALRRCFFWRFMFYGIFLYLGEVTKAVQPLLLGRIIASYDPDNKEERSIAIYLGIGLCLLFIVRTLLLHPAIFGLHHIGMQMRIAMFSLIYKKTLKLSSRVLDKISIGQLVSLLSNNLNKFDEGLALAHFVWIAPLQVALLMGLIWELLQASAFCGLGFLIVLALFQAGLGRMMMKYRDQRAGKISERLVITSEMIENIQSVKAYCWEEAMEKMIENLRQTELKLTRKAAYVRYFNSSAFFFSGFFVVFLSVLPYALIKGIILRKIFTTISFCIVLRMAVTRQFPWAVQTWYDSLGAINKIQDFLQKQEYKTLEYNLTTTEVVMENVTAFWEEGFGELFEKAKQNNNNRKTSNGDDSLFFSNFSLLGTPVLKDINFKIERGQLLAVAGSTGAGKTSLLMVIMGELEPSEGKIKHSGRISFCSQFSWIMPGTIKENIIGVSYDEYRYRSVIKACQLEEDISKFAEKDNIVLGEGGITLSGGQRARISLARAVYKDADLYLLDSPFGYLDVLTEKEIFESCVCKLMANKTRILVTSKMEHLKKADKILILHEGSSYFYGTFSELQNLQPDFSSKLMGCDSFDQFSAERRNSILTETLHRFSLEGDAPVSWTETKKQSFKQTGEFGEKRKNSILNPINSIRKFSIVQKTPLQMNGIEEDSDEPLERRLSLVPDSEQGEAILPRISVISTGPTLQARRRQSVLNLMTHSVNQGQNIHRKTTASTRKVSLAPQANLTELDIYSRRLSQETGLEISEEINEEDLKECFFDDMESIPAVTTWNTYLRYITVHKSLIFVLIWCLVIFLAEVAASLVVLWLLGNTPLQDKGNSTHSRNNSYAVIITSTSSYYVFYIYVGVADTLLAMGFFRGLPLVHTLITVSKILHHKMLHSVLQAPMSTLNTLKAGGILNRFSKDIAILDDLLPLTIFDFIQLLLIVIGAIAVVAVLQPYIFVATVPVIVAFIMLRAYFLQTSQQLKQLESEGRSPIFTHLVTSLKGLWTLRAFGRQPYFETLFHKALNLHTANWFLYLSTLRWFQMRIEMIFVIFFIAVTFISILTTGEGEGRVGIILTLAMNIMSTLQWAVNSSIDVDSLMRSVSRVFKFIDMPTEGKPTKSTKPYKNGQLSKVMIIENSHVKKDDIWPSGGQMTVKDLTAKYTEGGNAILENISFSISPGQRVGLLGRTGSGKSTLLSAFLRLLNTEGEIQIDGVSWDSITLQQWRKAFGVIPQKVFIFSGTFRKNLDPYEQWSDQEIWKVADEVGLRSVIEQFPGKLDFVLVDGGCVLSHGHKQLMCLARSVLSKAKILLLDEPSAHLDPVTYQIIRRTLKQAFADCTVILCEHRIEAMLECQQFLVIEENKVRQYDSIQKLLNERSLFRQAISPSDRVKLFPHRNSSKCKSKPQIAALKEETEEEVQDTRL
The experiment in a line: Protocol 2: FRET membrane potential optical assay (VIPR), identification of correction compounds. Type of assay: cell-based. As to conditions: F508del CFTR modulator activity; compounds of Table 1; read-out: EC30. The procedure, abridged:
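Correction of the F508del trafficking defect is scored as forskolin (10 μM)/genistein (20 μM)-stimulated Cl^− efflux in NIH3T3 mouse fibroblasts after a 16 hr, 37° C. compound exposure. Depolarization was followed optically using voltage-sensing FRET dyes.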
For `C[C@@H]1CN(c2nc(-n3ccc(OCC(C)(C)C)n3)ccc2C(=O)NS(=O)(=O)C2CC2)C(C)(C)C1` [Compound 2554, N-cyclopropylsulfonyl-6-[3-(2,2-dimethylpropoxy)pyrazol-1-yl]-2-[(4S)-2,2,4-trimethylpyrrolidin-1-yl]pyridine-3-carboxamide], the concentration for an effect of 30% (EC30) was less than 3000 nM. Turning to `CC1CN(c2ncccc2C(=O)NS(=O)(=O)c2cccc(Oc3ccc4c(c3)OCO4)n2)C(C)(C)C1` (centres unmarked) [Compound 2013, N—[[6-(1,3-benzodioxol-5-yloxy)-2-pyridyl]sulfonyl]-2-(2,2,4-trimethylpyrrolidin-1-yl)pyridine-3-carboxamide], the EC30 was less than 3000 nM. Turning to `CC(C)COc1cc(F)cc(-c2ccc(C(=O)NS(=O)(=O)N3C[C@H]4C[C@@H]3CO4)c(N3C[C@@H](C)CC3(C)C)n2)c1` [Compound 2347, 6-(3-fluoro-5-isobutoxy-phenyl)-N—[[(1R,4R)-2-oxa-5-azabicyclo[2.2.1]heptan-5-yl]sulfonyl]-2-[(4S)-2,2,4-trimethylpyrrolidin-1-yl]pyridine-3-carboxamide], the EC30 is less than 3000 nM. Still for that read-out and setting: in the case of `COc1ccc(-c2ccc(C(=O)NS(=O)(=O)c3ccc[nH]c3=O)c(N3C[C@@H](C)CC3(C)C)n2)c(F)c1F` [Compound 2567, 6-(2,3-difluoro-4-methoxy-phenyl)-N-[(2-oxo-1H-pyridin-3-yl)sulfonyl]-2-[(4S)-2,2,4-trimethylpyrrolidin-1-yl]pyridine-3-carboxamide] it was less than 3000 nM. As for `C[C@@H]1CN(c2nc(OC3CCCC3)c(F)cc2C(=O)NS(=O)(=O)c2cccc(N)n2)C(C)(C)C1` [Compound 2100, N-[(6-amino-2-pyridyl)sulfonyl]-6-(cyclopentoxy)-5-fluoro-2-[(4S)-2,2,4-trimethylpyrrolidin-1-yl]pyridine-3-carboxamide], the EC30 is less than 3000 nM. Still for that read-out and setting: in the case of `Cc1cccc(Oc2cccc(S(=O)(=O)NC(=O)c3cccnc3N3CC(C)CC3(C)C)n2)c1` (centres unmarked) [Compound 2320, N—[[6-(3-methylphenoxy)-2-pyridyl]sulfonyl]-2-(2,2,4-trimethylpyrrolidin-1-yl)pyridine-3-carboxamide] it was less than 3000 nM; in that of `CC1CN(c2ncccc2C(=O)NS(=O)(=O)c2cccc(NCC3CCCC3)n2)C(C)(C)C1` (centres unmarked) [Compound 2026, N—[[6-(cyclopentylmethylamino)-2-pyridyl]sulfonyl]-2-(2,2,4-trimethylpyrrolidin-1-yl)pyridine-3-carboxamide], less than 3000 nM. On the same count and under the same terms, the same measure for `C[C@@H]1CN(c2nc(C(C)(C)C)c(C(O)C(O)C(C)(C)C)cc2C(=O)NS(=O)(=O)c2cccc(N)n2)C(C)(C)C1` (some centres unmarked) [Compound 2370]: less than 3000 nM.

Regarding `COc1cc(Cl)cc(-c2cnc(N3CC(C)CC3(C)C)c(C(=O)NS(=O)(=O)c3cccc(N)n3)c2)c1` (centres unmarked) [Compound 2545, N-[(6-amino-2-pyridyl)sulfonyl]-5-(3-chloro-5-methoxy-phenyl)-2-(2,2,4-trimethylpyrrolidin-1-yl)pyridine-3-carboxamide], the concentration for an effect of 30% (EC30) is less than 3000 nM.

As for `COC(=O)c1ccc(Nc2cccc(S(=O)(=O)NC(=O)c3cccnc3N3CC(C)CC3(C)C)n2)nc1` (centres unmarked) [Compound 2140, methyl 6-[[6-[[2-(2,2,4-trimethylpyrrolidin-1-yl)pyridine-3-carbonyl]sulfamoyl]-2-pyridyl]amino]pyridine-3-carboxylate], the concentration for an effect of 30% (EC30) lay in the range of 3000 to 10000 nM. Still for that read-out and setting: in the case of `C[C@@H]1CN(c2nc(-c3cccc(F)c3)ccc2C(=O)NS(=O)(=O)N2CC[C@H](N)C2)C(C)(C)C1` [Compound 2414, N-[(3S)-3-aminopyrrolidin-1-yl]sulfonyl-6-(3-fluorophenyl)-2-[(4S)-2,2,4-trimethylpyrrolidin-1-yl]pyridine-3-carboxamide] it was 3000 to 10000 nM.

As to `CC1CN(c2ncc(-c3cccc(C(C)(C)C)c3)cc2C(=O)NS(=O)(=O)c2cccc(N)n2)C(C)(C)C1` (centres unmarked) [Compound 2180, N-[(6-amino-2-pyridyl)sulfonyl]-5-(3-tert-butylphenyl)-2-(2,2,4-trimethylpyrrolidin-1-yl)pyridine-3-carboxamide], the EC30 was less than 3000 nM.

Still in this assay, the particulars now being: Table 3; compounds of Table 1 as modulators of CFTR activity; protocol not stated.
For `CC(=O)c1cccc(S(=O)(=O)NC(=O)c2cc(C(C)(C)C)nn2Cc2c(C)cc(C)cc2C)c1` [Compound 332, N-(3-acetylphenyl)sulfonyl-5-tert-butyl-2-[(2,4,6-trimethylphenyl)methyl]pyrazole-3-carboxamide], the EC30 entry is reported as “+++ (“+++” means <3 uM)”. With `CC(C)COc1cc(F)cc(-c2ccc(C(=O)NS(=O)(=O)c3cccc(N)n3)c(N3[C@@H](C)CC[C@@H]3C)n2)c1` [Compound 458, N-[(6-amino-2-pyridyl)sulfonyl]-2-[(2S,5S)-2,5-dimethylpyrrolidin-1-yl]-6-(3-fluoro-5-isobutoxy-phenyl)pyridine-3-carboxamide], the EC30 result was “+++ (“+++” means <3 uM)”. The same measure, in the same setting: the same measure for `CCOc1cccc(-c2cc(C(=O)NS(=O)(=O)c3ccccc3)n(Cc3c(C)cccc3C)n2)c1` [Compound 280, N-(benzenesulfonyl)-2-[(2,6-dimethylphenyl)methyl]-5-(3-ethoxyphenyl)pyrazole-3-carboxamide]: “+++ (“+++” means <3 uM)”. On the same count and under the same terms, in the case of `Cc1ccc(Oc2nc(-c3cc(F)cc(OCC(C)C)c3)ccc2C(=O)NS(=O)(=O)c2cccc(N)n2)c(C)c1` [Compound 590, N-[(6-amino-2-pyridyl)sulfonyl]-2-(2,4-dimethylphenoxy)-6-(3-fluoro-5-isobutoxy-phenyl)pyridine-3-carboxamide] it was “+++ (“+++” means <3 uM)”; in that of `Cc1cc(C)c(CN2Cc3ccccc3[C@@H]2C(=O)NS(=O)(=O)c2cccc(N)c2)c(C)c1` [Compound 310, (1R)—N-(3-aminophenyl)sulfonyl-2-[(2,4,6-trimethylphenyl)methyl]isoindoline-1-carboxamide], “+++ (“+++” means <3 uM)”. The same measure, in the same setting: the same measure for `Cc1nc(-c2ccc(-c3cc(C(=O)NS(=O)(=O)c4ccccc4)n(Cc4c(C)cccc4C)n3)s2)no1` [Compound 151, N-(benzenesulfonyl)-2-[(2,6-dimethylphenyl)methyl]-5-[5-(5-methyl-1,2,4-oxadiazol-3-yl)-2-thienyl]pyrazole-3-carboxamide]: “+++ (“+++” means <3 uM)”; for `Cc1cccc(C)c1Cn1nc(-c2cccc(OC(C)(C)C)c2)cc1C(=O)NS(=O)(=O)c1ccccc1` [Compound 744, N-(benzenesulfonyl)-5-(3-tert-butoxyphenyl)-2-[(2,6-dimethylphenyl)methyl]pyrazole-3-carboxamide]: “+++ (“+++” means <3 uM)”; for `Cc1cc(C(=O)NS(=O)(=O)c2cccc(N)n2)c(N2[C@H](C)CC[C@@H]2C)nc1-c1ccc(OC(C)C)nc1` [Compound 486, N-[(6-amino-2-pyridyl)sulfonyl]-2-[(2R,5S)-2,5-dimethylpyrrolidin-1-yl]-6-(6-isopropoxy-3-pyridyl)-5-methyl-pyridine-3-carboxamide]: “++ (“++” means between 3 uM and 10 uM)”. Regarding `Cc1cc(C)c(Cn2c(C(=O)NS(=O)(=O)c3cccc(N)c3)cc3cc(F)ccc32)c(C)c1` [Compound 153, N-(3-aminophenyl)sulfonyl-5-fluoro-1-[(2,4,6-trimethylphenyl)methyl]indole-2-carboxamide], the EC30 result is given as “+++ (“+++” means <3 uM)”. The same measure, in the same setting: the same measure for `COC(=O)[C@@H]1CCCN1c1nc(-c2cc(F)cc(OCC(C)C)c2)ccc1C(=O)NS(=O)(=O)c1cccc(N)n1` [Compound 385, methyl (2S)-1-[3-[(6-amino-2-pyridyl)sulfonylcarbamoyl]-6-(3-fluoro-5-isobutoxy-phenyl)-2-pyridyl]pyrrolidine-2-carboxylate]: “+++ (“+++” means <3 uM)”. Same read-out and setting: the same measure for `Cc1ccc(-c2ccc(C(=O)NS(=O)(=O)c3cccc(N)n3)c(N3CC(C)CC3(C)C)n2)c(C)c1` (centres unmarked) [Compound 614, N-[(6-amino-2-pyridyl)sulfonyl]-6-(2,4-dimethylphenyl)-2-(2,2,4-trimethylpyrrolidin-1-yl)pyridine-3-carboxamide]: “+++ (“+++” means <3 uM)”; for `Cc1cc(C)c(Oc2nc(-c3cc(F)cc(OCC(C)C)c3)ccc2C(=O)NS(=O)(=O)c2cccc(C(=O)O)n2)c(C)c1` [Compound 461, 6-[[6-(3-fluoro-5-isobutoxy-phenyl)-2-(2,4,6-trimethylphenoxy)pyridine-3-carbonyl]sulfamoyl]pyridine-2-carboxylic acid]: “++ (“++” means between 3 uM and 10 uM)”; for `CC(C)COc1cc(F)cc(-c2ccc(C(=O)NS(=O)(=O)c3cccc(N)n3)c(OC(C)c3cccc(F)c3)n2)c1` (centres unmarked) [Compound 562, N-[(6-amino-2-pyridyl)sulfonyl]-6-(3-fluoro-5-isobutoxy-phenyl)-2-[1-(3-fluorophenyl)ethoxy]pyridine-3-carboxamide]: “+++ (“+++” means <3 uM)”.

In the case of `CC(C)COc1cc(F)cc(-c2ccc(C(=O)NS(=O)(=O)c3ccn[nH]3)c(N3CCC(CC#N)CC3)n2)c1` [Compound 556, 2-[4-(cyanomethyl)-1-piperidyl]-6-(3-fluoro-5-isobutoxy-phenyl)-N-(1H-pyrazol-5-ylsulfonyl)pyridine-3-carboxamide], the EC30 result is “+ (“+” means greater than 10 uM)”. Same read-out and setting: the same measure for `Cc1cc(C)c(Cn2c(C(=O)NS(=O)(=O)c3ccccc3)c(C)c3ccccc32)c(C)c1` [Compound 232, N-(benzenesulfonyl)-3-methyl-1-[(2,4,6-trimethylphenyl)methyl]indole-2-carboxamide]: “+++ (“+++” means <3 uM)”; for `COc1ncccc1S(=O)(=O)NC(=O)c1ccc(-c2ccc(C)cc2)nc1-c1ccc(C)cc1` [Compound 524, N-[(2-methoxy-3-pyridyl)sulfonyl]-2,6-bis(p-tolyl)pyridine-3-carboxamide]: “++ (“++” means between 3 uM and 10 uM)”; for `COc1c(C)cccc1S(=O)(=O)NC(=O)c1cc(C(C)(C)C)nn1Cc1c(C)cccc1C` [Compound 59, 5-tert-butyl-2-[(2,6-dimethylphenyl)methyl]-N-(2-methoxy-3-methyl-phenyl)sulfonyl-pyrazole-3-carboxamide]: “+++ (“+++” means <3 uM)”.
